Laboratory results published in PubChem BioAssay (NCI).
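In this assay, cells in 96-well plates receive the compound at five concentrations for 48 hours. Endpoints are linearly interpolated between the surrounding concentrations. The concentration for full growth arrest is given as TGI.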

Columns and labels:
Experiment in all cases: NCI tumour cell line growth inhibition, 48 h
[1] = tested on: RXF 393 renal
[2] = tested on: 786-0 renal
[3] = tested on: T-47D breast
[4] = tested on: EKVX NSCLC
[5] = tested on: SK-MEL-2 melanoma
[6] = tested on: SNB-19 CNS
[7] = tested on: SF-539 CNS
[8] = tested on: M14 melanoma
[9] = tested on: COLO 205 colon
[10] = tested on: OVCAR-8 ovarian
[11] = tested on: SK-MEL-5 melanoma
[12] = tested on: A549 NSCLC
[13] = tested on: A498 renal
[14] = tested on: TK-10 renal
[15] = tested on: NCI-H522 lung
[16] = tested on: HCC-2998 colon
[17] = tested on: NCI/ADR-RES ovarian
[18] = tested on: SF-268 CNS
[19] = tested on: DU-145 prostate
[20] = tested on: MCF7 breast
[21] = tested on: K-562 leukemia
[22] = tested on: SR leukemia
[23] = tested on: HCT-116 colon
[24] = tested on: OVCAR-5 ovarian
[25] = tested on: HL-60(TB) leukemia
[26] = tested on: UO-31 renal
[27] = tested on: SN12C renal
[28] = tested on: OVCAR-4 ovarian
[29] = tested on: SNB-75 CNS
[30] = tested on: HCT-15 colon
[31] = tested on: MDA-N
[32] = tested on: OVCAR-3 ovarian
[33] = tested on: CCRF-CEM leukemia
[34] = tested on: MDA-MB-231 breast
[35] = tested on: HOP-62 NSCLC
[36] = tested on: HOP-92 NSCLC
[37] = tested on: SK-MEL-28 melanoma
[38] = tested on: UACC-62 melanoma
[39] = tested on: LOX IMVI melanoma
[40] = tested on: SW-620 colon
[41] = tested on: NCI-H23 lung
[42] = tested on: CAKI-1 renal
[43] = tested on: NCI-H226 lung
[44] = tested on: BT-549 breast
[45] = tested on: PC-3 prostate
[46] = tested on: HS 578T breast
[47] = tested on: U251 CNS
[48] = tested on: MOLT-4 leukemia
[49] = tested on: MDA-MB-435
[50] = tested on: HT29 colon
[51] = tested on: SF-295 CNS
[52] = tested on: IGROV1 ovarian
[53] = tested on: NCI-H460 lung
[54] = tested on: UACC-257 melanoma
[55] = tested on: ACHN renal
[56] = tested on: KM12 colon
[57] = tested on: SK-OV-3 ovarian
[58] = tested on: MALME-3M melanoma
[59] = tested on: RPMI-8226 leukemia

## C=CC(O)C#Cc1cnc(OC)nc1OC (stereo not drawn)
[1]
  TGI: > 100 µM
[2]
  TGI: > 100 µM
[3]
  TGI: > 100 µM
[4]
  TGI: > 100 µM
[5]
  TGI: > 100 µM
[6]
  TGI: > 100 µM
[7]
  TGI: > 100 µM
[8]
  TGI: > 100 µM
[9]
  TGI: > 100 µM
[10]
  TGI: > 100 µM
[11]
  TGI: > 100 µM
[12]
  TGI: > 100 µM
[13]
  TGI: 33 µM
[14]
  TGI: > 100 µM
[15]
  TGI: > 100 µM
[16]
  TGI: > 100 µM
[17]
  TGI: > 100 µM
[18]
  TGI: > 100 µM
[19]
  TGI: > 100 µM
[20]
  TGI: > 100 µM
[21]
  TGI: 66.6 µM
[22]
  TGI: > 100 µM
[23]
  TGI: > 100 µM
[24]
  TGI: > 100 µM
[25]
  TGI: 43.9 µM
[26]
  TGI: > 100 µM
[27]
  TGI: > 100 µM
[28]
  TGI: > 100 µM
[29]
  TGI: > 100 µM
[30]
  TGI: > 100 µM
[31]
  TGI: > 100 µM
[32]
  TGI: > 100 µM
[33]
  TGI: 47.9 µM
[34]
  TGI: > 100 µM
[35]
  TGI: > 100 µM
[36]
  TGI: > 100 µM
[37]
  TGI: > 100 µM
[38]
  TGI: > 100 µM
[39]
  TGI: > 100 µM
[40]
  TGI: > 100 µM
[41]
  TGI: > 100 µM
[42]
  TGI: > 100 µM
[43]
  TGI: > 100 µM
[44]
  TGI: > 100 µM
[45]
  TGI: > 100 µM
[46]
  TGI: > 100 µM
[47]
  TGI: > 100 µM
[48]
  TGI: > 100 µM
[49]
  TGI: > 100 µM
[50]
  TGI: > 100 µM
[51]
  TGI: > 100 µM
[52]
  TGI: > 100 µM
[53]
  TGI: > 100 µM
[54]
  TGI: > 100 µM
[55]
  TGI: > 100 µM
[56]
  TGI: > 100 µM

## Nc1ccccc1C(=O)CCc1c[nH]c2ccccc12
[2]
  TGI: > 100 µM
[3]
  TGI: > 100 µM
[4]
  TGI: > 100 µM
[5]
  TGI: > 100 µM
[6]
  TGI: > 100 µM
[7]
  TGI: > 100 µM
[8]
  TGI: > 100 µM
[10]
  TGI: > 100 µM
[12]
  TGI: > 100 µM
[13]
  TGI: > 100 µM
[14]
  TGI: > 100 µM
[15]
  TGI: > 100 µM
[16]
  TGI: > 100 µM
[17]
  TGI: > 100 µM
[18]
  TGI: > 100 µM
[19]
  TGI: > 100 µM
[20]
  TGI: > 100 µM
[21]
  TGI: > 100 µM
[22]
  TGI: > 100 µM
[23]
  TGI: > 100 µM
[24]
  TGI: > 100 µM
[25]
  TGI: > 100 µM
[26]
  TGI: > 100 µM
[27]
  TGI: > 100 µM
[28]
  TGI: > 100 µM
[29]
  TGI: > 100 µM
[30]
  TGI: > 100 µM
[31]
  TGI: > 100 µM
[32]
  TGI: > 100 µM
[57]
  TGI: > 100 µM
[58]
  TGI: > 100 µM
[34]
  TGI: > 100 µM
[35]
  TGI: > 100 µM
[36]
  TGI: 55.2 µM
[37]
  TGI: > 100 µM
[38]
  TGI: > 100 µM
[39]
  TGI: > 100 µM
[40]
  TGI: > 100 µM
[43]
  TGI: > 100 µM
[44]
  TGI: > 100 µM
[45]
  TGI: > 100 µM
[46]
  TGI: > 100 µM
[47]
  TGI: > 100 µM
[48]
  TGI: > 100 µM
[49]
  TGI: > 100 µM
[50]
  TGI: > 100 µM
[51]
  TGI: > 100 µM
[52]
  TGI: > 100 µM
[53]
  TGI: > 100 µM
[54]
  TGI: > 100 µM
[59]
  TGI: > 100 µM
[55]
  TGI: > 100 µM
[56]
  TGI: > 100 µM

## CNc1ccc(S(=O)Nc2ccc(OC)cc2)cc1 (stereo not drawn)
[2]
  TGI: > 100 µM
[3]
  TGI: > 100 µM
[4]
  TGI: > 100 µM
[6]
  TGI: > 100 µM
[7]
  TGI: > 100 µM
[8]
  TGI: > 100 µM
[9]
  TGI: 91.4 µM
[10]
  TGI: > 100 µM
[11]
  TGI: > 100 µM
[12]
  TGI: > 100 µM
[13]
  TGI: > 100 µM
[14]
  TGI: > 100 µM
[15]
  TGI: > 100 µM
[16]
  TGI: > 100 µM
[17]
  TGI: > 100 µM
[18]
  TGI: > 100 µM
[19]
  TGI: > 100 µM
[20]
  TGI: > 100 µM
[21]
  TGI: > 100 µM
[22]
  TGI: > 100 µM
[23]
  TGI: > 100 µM
[25]
  TGI: > 100 µM
[26]
  TGI: 34.8 µM
[27]
  TGI: > 100 µM
[28]
  TGI: > 100 µM
[30]
  TGI: > 100 µM
[31]
  TGI: > 100 µM
[32]
  TGI: > 100 µM
[33]
  TGI: > 100 µM
[57]
  TGI: > 100 µM
[58]
  TGI: > 100 µM
[34]
  TGI: > 100 µM
[35]
  TGI: > 100 µM
[36]
  TGI: > 100 µM
[37]
  TGI: > 100 µM
[39]
  TGI: > 100 µM
[40]
  TGI: > 100 µM
[41]
  TGI: > 100 µM
[42]
  TGI: > 100 µM
[43]
  TGI: > 100 µM
[44]
  TGI: > 100 µM
[45]
  TGI: > 100 µM
[46]
  TGI: > 100 µM
[47]
  TGI: > 100 µM
[48]
  TGI: > 100 µM
[49]
  TGI: 70.1 µM
[50]
  TGI: > 100 µM
[51]
  TGI: > 100 µM
[52]
  TGI: > 100 µM
[53]
  TGI: > 100 µM
[54]
  TGI: > 100 µM
[59]
  TGI: > 100 µM
[55]
  TGI: > 100 µM
[56]
  TGI: 22.2 µM
